Reference: patent US20230233674A1 (priority 2022, published 2023)

Tested on: Influenza A/Hong Kong/2369/2009 (H1N1)
Conditions: mouse, in vivo

CCOC(=O)C1=C[C@@H](OC(CC)CC)[C@H](NC(C)=O)[C@@H](N)C1 [Oseltamivir]
mean peak weight loss: −32%
mice that succumbed to the disease: 90%
treatment effect: no significant effect
